In one experiment the target is human RORγt LBD (Homo sapiens (Human), UniProt P51449). The experiment can be described thus: RORγt Reporter Assay. The format is cell-based. Particulars: for IC50 / RORγt reporter Assay, % inhibition @ 6 μM: HEK293T cells; for inhibition at 6 µM: HEK-293T, read-out: RORγt reporter Assay, % inhibition @ 6 μM, HEK293T cells, 6 μM. An excerpt:
A reporter assay was used to test functional activity of RORγt modulatory compounds on transcriptional activation driven by the RORγt LBD. Cells used in the assay were co-transfected with two constructs. The first construct, pBIND-RORγt LBD, contained the wild type human RORγt LBD fused to the DNA binding domain of the GAL4 protein. The second construct, pGL4.31 (Promega Cat no. C935A), contained multiple GAL4 responsive DNA elements upstream of firefly luciferase. […] The mutant construct was called pBIND-RORγt-AF2.
The pBIND vector contains the GAL4 DNA Binding Domain (GAL4 DBD) and the renilla luciferase gene under control of the SV40 promoter. Renilla luciferase expression serves as a control for transfection efficiency and cell viability.
The reporter assay was performed by transiently transfecting HEK293T cells with 5 μg of pBIND-RORγt LBD or pBIND-RORγt LBD-AF2 and 5 μg pGL4.31 (Promega Cat no. C935A) using Fugene 6 (Invitrogen Cat no. E2691) at a 1:6 ratio of DNA:Fugene 6 in a T-75 flask in which cells were at least 80% confluent. Twenty four hours after bulk transfection, cells were plated into 96-well plates at 50,000 cells/well in phenol-red free DMEM containing 5% Lipid Reduced FCS and Pen/Strep. Six hours after plating, cells were treated with compounds for 24 hours. Media was removed and cells were lysed with 50 μL 1× Glo Lysis Buffer (Promega). Dual Glo Luciferase Reagent (50 μL/well) was then added and firefly luciferase luminescence was read on an Envision after a ten minute incubation. Finally, Stop and Glo reagent (50 μL/well) was added and renilla luciferase luminescence was read on an Envision after a ten minute incubation. To calculate the effect of compounds on RORγt activity, the ratio of firefly to renilla luciferase was determined and plotted against compound concentration. Agonist compounds increase RORγt-driven luciferase expression, and antagonist or inverse agonist compounds decrease luciferase expression.
(In general: Reporter assays use an easily measured gene product as a stand-in for the process of interest.)

Experiment [1] deals with IL-17 production by CD4 T cells. The experiment can be described thus: Human Th17 Assay. Type of experiment: cell-based. The conditions noted are these: 3 days. The text has this:
The human Th17 assay tests the effect of RORγt modulatory compounds on IL-17 production by CD4 T cells under conditions which favor Th17 differentiation. Total CD4^+ T cells were isolated from the peripheral blood mononuclear cells (PBMC) of healthy donors using a CD4^+ T cell isolation kit II, following the manufacturer's instructions (Miltenyi Biotec). Cells were resuspended in a medium of RPMI-1640 supplemented with 10% fetal bovine serum, penicillin, streptomycin, glutamate, and β-mercaptoethanol and were added to 96-well plates at 1.5×10^5 per 100 μL per well. 50 μL of compound at titrated concentrations in DMSO were added into each well at final DMSO concentration at 0.2%. Cells were incubated for 1 hour, then 50 μL of Th17 cell differentiation medium was added to each well. The final concentrations of antibodies and cytokines (R&D Systems) in differentiation medium were: 3×10^6/mL anti-CD3/CD28 beads (prepared using human T cell activation/expansion kit, Miltenyi Biotec), 10 μg/mL anti-IL4, 10 μg/mL anti-IFNγ, 10 ng/mL IL1β, 10 ng/mL IL23, 50 ng/mL IL6, 3 ng/mL TGFβ and 20 U/mL IL2. Cells were cultured at 37° C. and 5% CO2 for 3 days. Supernatants were collected and the accumulated IL-17 in culture was measured by using MULTI-SPOT® Cytokine Plate following manufacture's instruction (Meso Scale Discovery). The plate was read using Sector Imager 6000, and IL-17 concentration was extrapolated from the standard curve. The IC50s were determined by GraphPad.

Chain of human RORγt LBD (P51449 258-518): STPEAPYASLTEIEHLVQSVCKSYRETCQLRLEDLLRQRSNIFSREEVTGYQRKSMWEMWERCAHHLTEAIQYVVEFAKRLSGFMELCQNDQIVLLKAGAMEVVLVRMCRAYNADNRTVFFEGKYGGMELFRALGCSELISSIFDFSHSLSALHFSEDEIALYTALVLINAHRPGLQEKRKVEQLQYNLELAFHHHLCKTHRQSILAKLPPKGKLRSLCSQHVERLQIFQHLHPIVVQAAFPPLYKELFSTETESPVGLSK

Turning to `COc1nc2ccc(C(C)(O)c3oc(C)nc3C)cc2c(Cl)c1Cc1ccc(C(F)(F)F)cc1` (single isomer, unassigned) [Example 10c, 1-(4-Chloro-2-methoxy-3-(4-(trifluoromethyl)benzyl)quinolin-6-yl)-1-(2,4-dimethyloxazol-5-yl)ethanol], the IC50 (commonly the concentration needed to halve the response being measured) on human RORγt LBD was found to be 330 nM; in experiment [1] (Homo sapiens, CD4+ T, 72 h), 550 nM. The inhibition (in general, the drop in the measured response relative to a control, in per cent) at 6 µM on human RORγt LBD is 95%.
With `COc1nc2ccc(C(C)(O)c3cnnn3C)cc2c(Cl)c1Cc1ccc(C(F)(F)F)cc1` (single isomer, unassigned) [Example 11b, 1-(4-Chloro-2-methoxy-3-(4-(trifluoromethyl)benzyl)quinolin-6-yl)-1-(1-methyl-1H-1,2,3-triazol-5-yl)ethanol], on human RORγt LBD, the midpoint of inhibition, the IC50, lay at 210 nM and the inhibition at 6 µM stood at 98%. In experiment [1], the IC50 was 870 nM.
In the case of `COc1nc2ccc(C(C)(O)c3cnnn3C)cc2c(Cl)c1Cc1ccc(C(F)(F)F)cc1` (single isomer, unassigned) [Example 11c, 1-(4-Chloro-2-methoxy-3-(4-(trifluoromethyl)benzyl)quinolin-6-yl)-1-(1-methyl-1H-1,2,3-triazol-5-yl)ethanol], at human RORγt LBD, the IC50 came to 15 nM and the “RORγt reporter Assay, % inhibition @ 6 μM” value is given as 99%. The IC50 in experiment [1] was 57 nM.
Take `COc1nc2ccc(C(C)(O)c3cnc(C)n3C)cc2c(Cl)c1Cc1ccc(C(F)(F)F)cc1` (single isomer, unassigned) [Example 12b, 1-(4-Chloro-2-methoxy-3-(4-(trifluoromethyl)benzyl)quinolin-6-yl)-1-(1,2-dimethyl-1H-imidazol-5-yl)ethanol]: on human RORγt LBD, it took 500 nM to reach half-maximal inhibition (IC50) and the inhibition at 6 µM turned out to be 102%. This molecule had an IC50 in experiment [1] of 2100 nM.
For `COc1nc2ccc(C(C)(O)c3cnc(C)n3C)cc2c(Cl)c1Cc1ccc(C(F)(F)F)cc1` (single isomer, unassigned) [Example 12c, 1-(4-Chloro-2-methoxy-3-(4-(trifluoromethyl)benzyl)quinolin-6-yl)-1-(1,2-dimethyl-1H-imidazol-5-yl)ethanol], on human RORγt LBD, the IC50 was 41 nM and the “RORγt reporter Assay, % inhibition @ 6 μM” value came out at 102%. This molecule also displayed a 50% inhibitory concentration (IC50) in experiment [1] of 80 nM.
Take `COc1nc2ccc(C(C)(O)c3ccc(C)nc3C)cc2c(Cl)c1Cc1ccc(C(F)(F)F)cc1` (single isomer, unassigned) [Example 13b, 1-(4-Chloro-2-methoxy-3-(4-(trifluoromethyl)benzyl)quinolin-6-yl)-1-(2,6-dimethylpyridin-3-yl)ethanol]: at human RORγt LBD, the IC50 amounted to 200 nM and the inhibition at 6 µM came out at 101%. The IC50 in experiment [1] turned out to be 170 nM.
`COc1nc2ccc(C(C)(O)c3ccc(C)nc3C)cc2c(Cl)c1Cc1ccc(C(F)(F)F)cc1` (single isomer, unassigned) [Example 13c, 1-(4-Chloro-2-methoxy-3-(4-(trifluoromethyl)benzyl)quinolin-6-yl)-1-(2,6-dimethylpyridin-3-yl)ethanol]: the values for the IC50 (at human RORγt LBD; in experiment [1]) were 46 nM and 60 nM, respectively. Moreover, on human RORγt LBD, the “RORγt reporter Assay, % inhibition @ 6 μM” value amounted to 100%.
As to `C#CC(O)(c1ccc2nc(OC)c(Cc3ccc(C(F)(F)F)cc3)c(Cl)c2c1)c1cnc(C)n1C` (single isomer, unassigned) [Example 14b, 1-(4-Chloro-2-methoxy-3-(4-(trifluoromethyl)benzyl)quinolin-6-yl)-1-(1,2-dimethyl-1H-imidazol-5-yl)prop-2-yn-1-ol], the IC50 on human RORγt LBD amounted to 66 nM; in experiment [1] (Homo sapiens, CD4+ T, 72 h), 190 nM. Further, at human RORγt LBD, the inhibition at 6 µM was found to be 84%.
On to `C#CC(O)(c1ccc2nc(OC)c(Cc3ccc(C(F)(F)F)cc3)c(Cl)c2c1)c1cnc(C)n1C` (single isomer, unassigned) [Example 14c, 1-(4-Chloro-2-methoxy-3-(4-(trifluoromethyl)benzyl)quinolin-6-yl)-1-(1,2-dimethyl-1H-imidazol-5-yl)prop-2-yn-1-ol], for which, at human RORγt LBD, the IC50 turned out to be 310 nM and the “RORγt reporter Assay, % inhibition @ 6 μM” value is recorded as 94%. In addition, the IC50 in experiment [1] worked out at 290 nM.

The record behind these values is patent publication US9346782B2, “Alkyl linked quinolinyl modulators of RORγt” (Janssen Pharmaceutica NV, priority 2013, dated 2016).
